Assay results from patent publication US9834571B2, “Compounds for inhibiting cell proliferation in EGFR-driven cancers” (ARIAD Pharmaceuticals, Inc., priority 2012, dated 2017).
Where two headings read alike, the source gives them in different places.

Experiments:
EGFR L858R/T790M = EGFR L858R/T790M (Homo sapiens, UniProt P00533, L858R/T790M); test: Kinase inhibitory activity against EGFR bearing the L858R/T790M double mutation; type: biochemical; conditions: 10 μM ATP, read-out: IC50 for kinase inhibition, EGFR L858R T790M
Outline: (§1)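 Testing covers a ten-concentration range beginning at 3 μM, performed once per concentration at an ATP level of 10 μM.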

EGFR L858R = EGFR L858R (Homo sapiens, UniProt P00533, L858R); test: Kinase inhibitory activity against EGFR bearing the L858R mutation; type: biochemical; conditions: 10 μM ATP, read-out: IC50 for kinase inhibition, EGFR L858R
Outline: as §1

[1] = biological target: human EGFR (native sequence) (Homo sapiens, UniProt P00533); test: Kinase inhibitory activity against human EGFR (native sequence); type: biochemical; conditions: 10 μM ATP, read-out: IC50 for kinase inhibition, EGFR
Outline: as §1

[2] = biological target: T1, BaF3 cells expressing the target EGFR mutations (Homo sapiens, UniProt P00533, T790M, cells depend on it, form not given); test: Antiproliferative activity (MTT) against BaF3 cells expressing the target EGFR mutations; type: cell-based; conditions: BAF3 EGFR DEL T790M PURO POOL cells, read-out: IC50, BAF3 EGFR DEL T790M PURO POOL
T1 construct: IC50, BAF3 EGFR DEL T790M PURO POOL; other: BAF3 EGFR DEL T790M PURO POOL cells, MTT; other: BAF3 EGFR DEL T790M PURO POOL cells; MTT
Outline: (§2)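 MTT read-out; BaF3 lines carrying EGFR mutations vs wildtype-EGFR BaF3 control.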

[3] = biological target: T2, BaF3 cells expressing the target EGFR mutations (Homo sapiens, UniProt P00533, T790M/L858R, cells depend on it); test: as above; type: cell-based; conditions: BAF3 EGFR L858R-T790M PURO POOL cells, read-out: IC50, BAF3 EGFR L858R-T790M PURO POOL
T2 construct: IC50, BAF3 EGFR L858R-T790M PURO POOL; other: BAF3 EGFR L858R-T790M PURO POOL cells, MTT; IC50, BAF3 EGFR L858R-T790M PURO POOL; other: BAF3 EGFR L858R-T790M PURO POOL cells; MTT
Outline: as §2

[4] = tested on: BaF3 cells expressing wildtype EGFR; test: Antiproliferative activity (MTT) against control BaF3 cells expressing wildtype EGFR; type: cell-based; conditions: Mus musculus
Outline: as §2

[5] = EGFR L858R/T790M double mutation
[6] = 10 pt curves, 3 μM top concentration

T2 sequence (P00533 whole entry T790M/L858R): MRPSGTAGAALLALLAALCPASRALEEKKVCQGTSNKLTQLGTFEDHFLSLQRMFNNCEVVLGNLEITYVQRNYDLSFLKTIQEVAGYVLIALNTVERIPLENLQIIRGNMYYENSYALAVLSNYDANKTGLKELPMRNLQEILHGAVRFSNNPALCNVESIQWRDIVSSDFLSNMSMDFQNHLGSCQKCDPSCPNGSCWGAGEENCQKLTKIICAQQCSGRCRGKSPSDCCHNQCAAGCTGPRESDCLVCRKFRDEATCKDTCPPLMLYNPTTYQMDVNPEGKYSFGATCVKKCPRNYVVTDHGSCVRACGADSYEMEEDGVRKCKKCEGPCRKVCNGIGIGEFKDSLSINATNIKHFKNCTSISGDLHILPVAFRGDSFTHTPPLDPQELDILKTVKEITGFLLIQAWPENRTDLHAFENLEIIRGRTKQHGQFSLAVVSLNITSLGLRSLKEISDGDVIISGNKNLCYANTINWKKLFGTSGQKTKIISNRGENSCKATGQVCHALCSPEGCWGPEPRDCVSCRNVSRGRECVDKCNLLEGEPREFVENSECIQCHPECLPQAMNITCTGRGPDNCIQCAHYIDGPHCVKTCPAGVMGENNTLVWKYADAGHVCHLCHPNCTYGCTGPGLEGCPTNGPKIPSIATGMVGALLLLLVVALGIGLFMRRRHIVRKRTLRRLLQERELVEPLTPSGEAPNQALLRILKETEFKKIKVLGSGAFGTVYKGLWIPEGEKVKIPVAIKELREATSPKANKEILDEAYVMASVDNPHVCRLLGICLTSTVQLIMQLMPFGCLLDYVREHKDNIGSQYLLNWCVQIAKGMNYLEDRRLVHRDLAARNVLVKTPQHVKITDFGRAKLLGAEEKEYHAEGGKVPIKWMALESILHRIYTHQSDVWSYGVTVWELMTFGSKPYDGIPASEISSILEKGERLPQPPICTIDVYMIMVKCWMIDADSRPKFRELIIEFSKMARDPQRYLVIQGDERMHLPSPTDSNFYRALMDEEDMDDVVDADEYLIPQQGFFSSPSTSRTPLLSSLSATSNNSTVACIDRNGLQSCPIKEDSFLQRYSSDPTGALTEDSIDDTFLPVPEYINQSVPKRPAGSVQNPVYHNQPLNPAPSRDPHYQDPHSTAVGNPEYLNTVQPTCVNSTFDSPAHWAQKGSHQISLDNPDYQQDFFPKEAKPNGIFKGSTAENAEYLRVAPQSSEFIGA
Sequence of human EGFR (native sequence) (P00533 25-1210): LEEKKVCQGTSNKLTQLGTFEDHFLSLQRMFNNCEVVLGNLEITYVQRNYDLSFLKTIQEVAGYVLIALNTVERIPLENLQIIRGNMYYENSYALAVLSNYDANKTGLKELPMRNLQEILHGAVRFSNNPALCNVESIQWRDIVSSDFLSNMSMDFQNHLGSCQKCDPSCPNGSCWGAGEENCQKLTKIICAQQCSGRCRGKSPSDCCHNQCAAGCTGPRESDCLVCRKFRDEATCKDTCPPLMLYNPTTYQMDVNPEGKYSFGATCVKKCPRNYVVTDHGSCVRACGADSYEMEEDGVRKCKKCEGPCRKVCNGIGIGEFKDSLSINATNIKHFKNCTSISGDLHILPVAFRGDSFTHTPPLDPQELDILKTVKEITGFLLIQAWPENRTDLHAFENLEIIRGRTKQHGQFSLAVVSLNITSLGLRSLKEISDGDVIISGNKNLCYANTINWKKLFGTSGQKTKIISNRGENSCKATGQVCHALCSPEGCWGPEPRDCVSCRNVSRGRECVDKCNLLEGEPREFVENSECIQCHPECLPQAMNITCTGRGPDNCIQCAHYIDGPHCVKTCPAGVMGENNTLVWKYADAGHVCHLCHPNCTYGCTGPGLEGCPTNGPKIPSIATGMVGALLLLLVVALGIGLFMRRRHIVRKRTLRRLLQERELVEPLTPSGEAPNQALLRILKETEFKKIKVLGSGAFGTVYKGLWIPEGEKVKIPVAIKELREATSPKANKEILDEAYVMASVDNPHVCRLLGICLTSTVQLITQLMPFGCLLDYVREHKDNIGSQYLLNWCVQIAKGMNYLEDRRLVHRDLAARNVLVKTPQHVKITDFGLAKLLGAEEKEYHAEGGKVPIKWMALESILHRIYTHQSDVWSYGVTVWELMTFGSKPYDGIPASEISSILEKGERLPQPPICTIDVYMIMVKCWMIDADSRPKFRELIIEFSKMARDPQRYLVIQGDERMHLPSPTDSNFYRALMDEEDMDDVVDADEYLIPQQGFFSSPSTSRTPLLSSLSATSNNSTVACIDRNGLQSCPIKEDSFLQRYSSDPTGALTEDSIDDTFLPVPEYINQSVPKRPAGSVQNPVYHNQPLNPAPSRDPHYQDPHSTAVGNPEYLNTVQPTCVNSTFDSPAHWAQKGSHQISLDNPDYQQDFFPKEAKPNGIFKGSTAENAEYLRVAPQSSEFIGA
T1 sequence (P00533 with tags, fused parts or gaps DEL746-750/T790M, form open): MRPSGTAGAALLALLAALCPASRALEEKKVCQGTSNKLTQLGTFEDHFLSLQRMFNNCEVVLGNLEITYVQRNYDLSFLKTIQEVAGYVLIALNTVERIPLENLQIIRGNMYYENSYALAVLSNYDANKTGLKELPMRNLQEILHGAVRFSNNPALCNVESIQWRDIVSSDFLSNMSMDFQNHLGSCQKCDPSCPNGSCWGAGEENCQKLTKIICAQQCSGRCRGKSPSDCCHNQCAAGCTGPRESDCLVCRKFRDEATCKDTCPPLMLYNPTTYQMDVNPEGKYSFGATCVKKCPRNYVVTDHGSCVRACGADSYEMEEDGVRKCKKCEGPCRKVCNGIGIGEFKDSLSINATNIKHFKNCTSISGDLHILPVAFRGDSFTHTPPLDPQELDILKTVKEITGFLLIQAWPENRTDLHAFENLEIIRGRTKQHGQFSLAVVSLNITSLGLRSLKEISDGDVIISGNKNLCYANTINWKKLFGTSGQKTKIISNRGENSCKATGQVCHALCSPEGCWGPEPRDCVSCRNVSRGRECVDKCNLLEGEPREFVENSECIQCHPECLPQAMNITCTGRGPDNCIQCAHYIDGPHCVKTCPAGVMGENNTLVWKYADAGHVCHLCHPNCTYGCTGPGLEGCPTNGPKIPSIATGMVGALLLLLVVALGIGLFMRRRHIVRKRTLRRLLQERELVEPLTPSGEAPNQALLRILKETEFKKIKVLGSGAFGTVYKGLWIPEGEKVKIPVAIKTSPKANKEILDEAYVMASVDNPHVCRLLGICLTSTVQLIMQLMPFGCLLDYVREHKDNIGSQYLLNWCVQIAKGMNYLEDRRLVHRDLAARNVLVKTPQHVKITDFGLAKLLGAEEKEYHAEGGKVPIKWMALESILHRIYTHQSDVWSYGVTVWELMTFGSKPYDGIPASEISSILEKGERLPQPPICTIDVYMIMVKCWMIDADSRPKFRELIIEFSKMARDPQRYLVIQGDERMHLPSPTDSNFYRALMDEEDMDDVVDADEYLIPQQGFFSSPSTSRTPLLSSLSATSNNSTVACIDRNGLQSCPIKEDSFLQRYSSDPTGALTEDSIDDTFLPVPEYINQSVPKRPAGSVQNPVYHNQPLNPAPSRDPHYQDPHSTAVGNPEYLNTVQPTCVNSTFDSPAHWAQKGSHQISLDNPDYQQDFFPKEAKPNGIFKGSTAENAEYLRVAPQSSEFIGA
Sequence of EGFR L858R/T790M (P00533 25-1210 T790M/L858R): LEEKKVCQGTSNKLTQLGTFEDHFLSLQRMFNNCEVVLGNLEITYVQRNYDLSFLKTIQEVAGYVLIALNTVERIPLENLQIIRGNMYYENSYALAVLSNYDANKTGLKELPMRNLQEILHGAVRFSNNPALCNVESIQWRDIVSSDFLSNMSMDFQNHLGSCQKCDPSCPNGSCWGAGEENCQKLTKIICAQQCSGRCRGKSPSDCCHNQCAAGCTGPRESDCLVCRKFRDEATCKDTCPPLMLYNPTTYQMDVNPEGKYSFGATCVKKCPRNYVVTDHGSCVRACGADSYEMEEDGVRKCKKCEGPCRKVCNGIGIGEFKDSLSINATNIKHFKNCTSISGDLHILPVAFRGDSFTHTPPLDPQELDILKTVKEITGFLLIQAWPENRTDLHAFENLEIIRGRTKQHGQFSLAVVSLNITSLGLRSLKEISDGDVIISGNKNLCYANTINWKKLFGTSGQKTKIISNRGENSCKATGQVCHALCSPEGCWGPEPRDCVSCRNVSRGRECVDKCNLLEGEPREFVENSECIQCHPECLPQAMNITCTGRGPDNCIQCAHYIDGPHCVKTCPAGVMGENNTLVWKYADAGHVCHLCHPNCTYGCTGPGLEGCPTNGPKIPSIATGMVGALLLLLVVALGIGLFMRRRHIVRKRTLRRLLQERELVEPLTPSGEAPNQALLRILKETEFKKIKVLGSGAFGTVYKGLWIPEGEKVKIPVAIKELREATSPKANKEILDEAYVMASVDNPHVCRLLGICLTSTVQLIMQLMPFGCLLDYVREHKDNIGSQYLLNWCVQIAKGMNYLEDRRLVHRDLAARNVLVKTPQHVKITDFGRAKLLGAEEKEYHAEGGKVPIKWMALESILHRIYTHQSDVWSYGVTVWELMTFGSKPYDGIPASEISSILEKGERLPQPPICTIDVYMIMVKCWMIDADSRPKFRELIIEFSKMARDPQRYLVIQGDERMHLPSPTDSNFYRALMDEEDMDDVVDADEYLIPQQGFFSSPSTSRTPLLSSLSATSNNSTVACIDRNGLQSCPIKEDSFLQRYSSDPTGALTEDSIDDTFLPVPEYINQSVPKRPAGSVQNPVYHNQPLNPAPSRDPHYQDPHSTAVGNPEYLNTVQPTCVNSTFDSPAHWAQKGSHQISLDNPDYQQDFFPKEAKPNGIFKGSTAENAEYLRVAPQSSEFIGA

Compound | IC50 (EGFR L858R/T790M; [5]) [nM] | IC50 (EGFR L858R; EGFR L858R) [nM] | IC50 ([1]; human EGFR native sequence) [nM] | GI50 [2] [nM] | GI50 [3] [nM] | IC50 ([4]; BAF3 PARENTAL cells (control)) [nM] | IC50 (EGFR L858R/T790M; [6]) [nM] | IC50 (EGFR L858R; [6]) [nM] | IC50 [1, 6] [nM] | IC50 ([4]; BAF3 parental cells) [nM]
C=C(CN1CCCC1)C(=O)Nc1ccc(OC)c(Nc2ncc(Cl)c(Nc3ccccc3P(C)(C)=O)n2)c1 [Example 42, N-(3-((5-chloro-4-((2-(dimethylphosphoryl)phenyl)amino)pyrimidin-2-yl)amino)-4-methoxyphenyl)-2-(pyrrolidin-1-ylmethyl)acrylamide] | < 50 | < 50 | < 50 | < 50 | < 50 | ≥ 250 | – | – | – | –
C=CC(=O)Nc1ccc(OC)c(Nc2ncc(Cl)c(Nc3ccc(OCCOC)cc3P(C)(C)=O)n2)c1 [Example 86, N-(3-((5-chloro-4-((2-(dimethylphosphoryl)-4-(2-methoxyethoxy)phenyl)amino)pyrimidin-2-yl)amino)-4-methoxyphenyl)acrylamide] | < 50 | < 50 | 50 to 100 | < 50 | 50 to 100 | ≥ 250 | – | – | – | –
C=CC(=O)Nc1ccc(Nc2ncc(Cl)c(Nc3cccc(OCCN4CCCCC4)c3P(C)(C)=O)n2)c(OC)c1 [Example 107, N-(4-((5-chloro-4-((2-(dimethylphosphoryl)-3-(2-(piperidin-1-yl)ethoxy)phenyl)amino)pyrimidin-2-yl)amino)-3-methoxyphenyl)acrylamide] | – | – | – | < 50 | 101 to 250 | – | < 50 | < 50 | 101 to 250 | ≥ 250
COc1cc(F)c(NC(=O)C#CCN(C)C)cc1Nc1ncc(Cl)c(Nc2ccccc2P(C)(C)=O)n1 [Example 87, N-(5-((5-chloro-4-((2-(dimethylphosphoryl)phenyl)amino)pyrimidin-2-yl)amino)-2-fluoro-4-methoxyphenyl)-4-(dimethylamino)but-2-ynamide] | < 50 | < 50 | < 50 | < 50 | < 50 | 101 to 250 | – | – | – | –
CC#CC(=O)Nc1cc(Nc2ncc(Cl)c(Nc3ccccc3P(C)(C)=O)n2)c(OC)cc1OC1COC1 [Example 103, N-(5-((5-chloro-4-((2-(dimethylphosphoryl)phenyl)amino)pyrimidin-2-yl)amino)-4-methoxy-2-(oxetan-3-yloxy)phenyl)but-2-ynamide] | – | – | – | < 50 | 50 to 100 | – | 50 to 100 | < 50 | ≥ 250 | ≥ 250
C=C(CN1CCNC(=O)C1)C(=O)Nc1ccc(OC)c(Nc2ncc(Cl)c(Nc3ccccc3P(C)(C)=O)n2)c1 [Example 47, N-(3-((5-chloro-4-((2-(dimethylphosphoryl)phenyl)amino)pyrimidin-2-yl)amino)-4-methoxyphenyl)-2-((3-oxopiperazin-1-yl)methyl)acrylamide] | < 50 | < 50 | < 50 | 101 to 250 | ≥ 250 | ≥ 250 | – | – | – | –
C=CC(=O)Nc1cc(Nc2ncc(Cl)c(Nc3ccccc3P(C)(C)=O)n2)c(OC)cc1N1CCC(N2CCCN(C)CC2)CC1 [Example 71, N-(5-((5-chloro-4-((2-(dimethylphosphoryl)phenyl)amino)pyrimidin-2-yl)amino)-4-methoxy-2-(4-(4-methyl-1,4-diazepan-1-yl)piperidin-1-yl)phenyl)acrylamide] | < 50 | < 50 | < 50 | 50 to 100 | 101 to 250 | ≥ 250 | – | – | – | –
COCCC#CC(=O)Nc1cc(Nc2ncc(Cl)c(Nc3ccccc3P(C)(C)=O)n2)c(OC)cc1N1CCOCC1 [Example 115, N-(5-((5-chloro-4-((2-(dimethylphosphoryl)phenyl)amino)pyrimidin-2-yl)amino)-4-methoxy-2-morpholinophenyl)-5-methoxypent-2-ynamide] | – | – | – | < 50 | < 50 | – | < 50 | < 50 | < 50 | ≥ 250
C=CC(=O)Nc1ccc(OC)c(Nc2ncc(Cl)c(Nc3ccc(OCCN4CCCCC4)cc3P(C)(C)=O)n2)c1 [Example 108, N-(3-((5-chloro-4-((2-(dimethylphosphoryl)-4-(2-(piperidin-1-yl)ethoxy)phenyl)amino)pyrimidin-2-yl)amino)-4-methoxyphenyl)acrylamide] | – | – | – | < 50 | < 50 | – | < 50 | < 50 | < 50 | ≥ 250
C=CC(=O)Nc1cc(Nc2ncc(Cl)c(Nc3ccccc3P(C)(C)=O)n2)c(OC)cc1C#CC(C)(C)N [Example 65, N-(2-(3-amino-3-methylbut-1-yn-1-yl)-5-((5-chloro-4-((2-(dimethylphosphoryl)phenyl)amino)pyrimidin-2-yl)amino)-4-methoxyphenyl)acrylamide] | < 50 | < 50 | < 50 | < 50 | < 50 | ≥ 250 | – | – | – | –
Cc1ccc(NC(=O)CCl)cc1Nc1ncc(Cl)c(Nc2ccccc2P(C)(C)=O)n1 [Example 148, 2-chloro-N-(3-((5-chloro-4-((2-(dimethylphosphoryl)phenyl)amino)pyrimidin-2-yl)amino)-4-methylphenyl)acetamide] | – | – | – | < 50 | < 50 | – | < 50 | < 50 | < 50 | ≥ 250
C=CC(=O)Nc1cc(Nc2ncc(Cl)c(Nc3ccccc3P(C)(C)=O)n2)c(OC)cc1OC1COC1 [Example 9, N-(5-((5-chloro-4-((2-(dimethylphosphoryl)phenyl)amino)pyrimidin-2-yl)amino)-4-methoxy-2-(oxetan-3-yloxy)phenyl)acrylamide] | < 50 | < 50 | ≥ 250 | < 50 | 50 to 100 | ≥ 250 | – | – | – | –
C=CC(=O)Nc1cc(Nc2ncc(Cl)c(Nc3ccccc3P(C)(C)=O)n2)c(OC)cc1N1CCC(N(CC)CC)C1 (stereo not drawn) [Example 34, N-(5-((5-chloro-4-((2-(dimethylphosphoryl)phenyl)amino)pyrimidin-2-yl)amino)-2-(3-(diethylamino)pyrrolidin-1-yl)-4-methoxyphenyl)acrylamide] | < 50 | < 50 | < 50 | < 50 | < 50 | ≥ 250 | – | – | – | –
C=CC(=O)Nc1cc(Nc2ncc(Cl)c(Nc3ccccc3P(C)(C)=O)n2)c(C)cc1C#CCN(C)C [Example 151, N-(5-((5-chloro-4-((2-(dimethylphosphoryl)phenyl)amino)pyrimidin-2-yl)amino)-2-(3-(dimethylamino)prop-1-yn-1-yl)-4-methylphenyl)acrylamide] | – | – | – | < 50 | < 50 | – | < 50 | < 50 | < 50 | ≥ 250
CNC(=O)/C=C\C(=O)Nc1ccc(OC)c(Nc2ncc(Cl)c(Nc3ccccc3P(C)(C)=O)n2)c1 [Example 110, N1-(3-((5-chloro-4-((2-(dimethylphosphoryl)phenyl)amino)pyrimidin-2-yl)amino)-4-methoxyphenyl)-N4-methylmaleamide] | – | – | – | < 50 | 101 to 250 | – | < 50 | < 50 | ≥ 250 | ≥ 250
C=CC(=O)Nc1cc(Nc2ncc(Cl)c(Nc3ccccc3P(C)(C)=O)n2)c(OC)cc1N1CC(N2CCCC2)C1 [Example 31, N-(5-((5-chloro-4-((2-(dimethylphosphoryl)phenyl)amino)pyrimidin-2-yl)amino)-4-methoxy-2-(3-(pyrrolidin-1-yl)azetidin-1-yl)phenyl)acrylamide] | < 50 | < 50 | < 50 | < 50 | < 50 | ≥ 250 | – | – | – | –
C=CC(=O)Nc1ccc(CC)c(Nc2ncc(Cl)c(Nc3ccccc3P(C)(C)=O)n2)c1 [Example 135, N-(3-((5-chloro-4-((2-(dimethylphosphoryl)phenyl)amino)pyrimidin-2-yl)amino)-4-ethylphenyl)acrylamide] | – | – | – | < 50 | < 50 | – | < 50 | < 50 | < 50 | ≥ 250
